Experiments:
[1] = test system: Jurkat cells; assay: Jurkat cell adhesion system (adhesion to immobilized human fibronectin, PMA-stimulated); type: cell-based; conditions: concentration inhibiting by 50% the PMA-stimulated increase in the number of adhered Jurkat cells on human fibronectin; 45-60 minutes, 37° C.
Description: Evaluation of Compounds in Jurkat Cell Adhesion System
<Immobilization of Human Fibronectin in 96-Well Plate>
Human fibronectin (Becton Dickinson Biosciences) was diluted with phosphate-buffered saline (hereinafter abbreviated as PBS; Sigma) to 0.1-0.01 μg/ml, and the diluted solution was added to a 96-well plate (Becton Dickinson) at 50 μl/well, and allowed to stand overnight at 4° C. On the following day, the supernatant was removed from the plate, and then PBS containing 1% bovine serum albumin (hereinafter abbreviated as BSA; Sigma) was added thereto at 100 μl/well and incubation was performed at 37° C. for 2 hours in a CO2 incubator (Hirasawa).
The supernatant was removed from each plate and Jurkat cells suspended in RPMI-1640 (Sigma) containing 1 mg/ml BSA were added at 80 μl/well for 2.5×10^5 cells/well. The compound diluted to different concentrations with RPMI-1640 containing 1 mg/ml BSA was immediately added at 10 μl/well, and then 100 nM phorbol myristate acetate (hereinafter abbreviated as PMA; Sigma) in RPMI-1640 containing 1 mg/ml BSA was added at 10 μl/well and the plate was incubated in a CO2 incubator at 37° C. for 45-60 minutes. The supernatant was removed from the plate and each well was washed several times with 100 μl/well of RPMI-1640, after which 50 mM citrate buffer (pH 5.0) containing 3.75 mM p-nitrophenol-N-acetyl-β-D-glucosaminide (Sigma) and 0.25% Triton X-100 (Sigma) were added at 60 μl/well, and the mixture was placed in a CO2 incubator and incubated at 37° C. for 45 minutes. After incubation, 50 mM glycine buffer (pH 10.4) containing 5 mM EDTA was added at 90 μl/well, and the absorbance at 405 nm was measured with an EL340 Automated Microplate Reader (BIO-TEK) to determine the adhered cell count. The concentration of each compound which inhibited the increase in the number of adhered cells by the PMA-stimulation by 50% was recorded as the IC50 (μM).

[2] = test system: Balb/c mice; assay: Oxazolone-induced colon neutrophil infiltration model; type: in vivo; conditions: Mus musculus, po, 4 h, colon myeloperoxidase activity vs oxazolone control group, male Balb/c mice, 30 mg/kg orally 30 minutes before intrarectal oxazolone, colons taken four hours after, read-out: Inhibitory rate (%)
Description: Evaluation of Compounds in Oxazolone-Induced Colon Neutrophil Infiltration Model
<Sensitization with Oxazolone>
Five- to six-week-old male Balb/c mice (Charles River Japan) were shaven at the abdomen to an approximately 2 cm square area. A 100% ethanol solution containing 3% 4-ethoxymethylene-2-phenyl-2-oxazolin-5-one (hereinafter referred to as “oxazolone”; Sigma) was applied at 150 μl onto the abdomen of each mouse.
<Preparation of Emulsion Containing Oxazolone>
Distilled water (Otsuka Pharmaceutical) was added in an equivalent volume to 100% peanut oil (Kanto Kagaku) containing 1% oxazolone, and the components were vigorously mixed with a glass syringe (Top Co.), to prepare an emulsion containing 0.5% oxazolone.
<Induction with Oxazolone> […]
Each compound was suspended or dissolved in an aqueous solution containing 0.5% methyl cellulose (Wako), and orally administered at 30 mg/kg 30 minutes prior to the intrarectal injection of oxazolone emulsion. […] Specifically, to 10 μl of the obtained supernatant was added 200 μl of 50 mM KPB (pH6.0) containing 0.017% o-dianisidine (Sigma) and 0.0005% hydrogen peroxide (Wako), incubated at 37° C., and the change in absorbance at 450 nm was continuously measured for 1 minute using an EL340 Automated Microplate Reader (BIO-TEK) in kinetic mode. The units were the rate of change in absorbance per minute (mO.D./min.). […]

IC50 [1]: 6.2 µM
SMILES: COCCN1CCN(c2ccccc2C2CCC(C(C)(C)C)CC2)CC1.Cl (centres unmarked) [Example 19, 1-[2-(4-t-Butylcyclohexyl)phenyl]-4-(2-methoxyethyl)piperazine hydrochloride]
inhibition in vivo at 30 mg/kg [2]: 53%

Source: patent publication US20060276465A1, “1,2-di(cyclic) substituted benzene compounds” (Eisai R&D Management Co., Ltd., priority 2003, published 2006)
